Source: patent publication US9884849B2, “Fluorinated benzofuranyl-pyrimidine derivatives containing a sulfoximine group” (Bayer Pharma Aktiengesellschaft, priority 2014, dated 2018)
Where two headings read alike, the source gives them in different places.

Tests used:
[1] = target: T1, CDK9/CycT1 (Homo sapiens, UniProt P50750); test: CDK9/CycT1 high ATP kinase assay (Method 1b, TR-FRET); type: biochemical; conditions: 2 mM ATP; for Selectivity high ATP CDK9 over high ATP CDK2: IC50 (high ATP CDK2)/IC50 (high ATP CDK9): Methods 1b. and 2b.
T1 construct: Recombinant full-length His-tagged human CDK9 and CycT1; His; purchased Invitrogen PV4131; host or cells: insect cells
T1 sequence (P50750 whole entry): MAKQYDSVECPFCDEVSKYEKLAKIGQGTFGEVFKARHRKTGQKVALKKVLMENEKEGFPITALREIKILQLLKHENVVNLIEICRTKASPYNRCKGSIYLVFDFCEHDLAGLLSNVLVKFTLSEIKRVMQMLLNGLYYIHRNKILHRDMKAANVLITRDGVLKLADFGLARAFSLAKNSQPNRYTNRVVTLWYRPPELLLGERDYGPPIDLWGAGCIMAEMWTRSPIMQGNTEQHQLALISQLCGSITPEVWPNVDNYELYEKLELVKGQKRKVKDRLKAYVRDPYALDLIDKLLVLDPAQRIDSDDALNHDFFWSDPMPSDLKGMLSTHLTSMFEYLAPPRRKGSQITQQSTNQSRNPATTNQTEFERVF
T1 sequence (O60563 whole entry partner): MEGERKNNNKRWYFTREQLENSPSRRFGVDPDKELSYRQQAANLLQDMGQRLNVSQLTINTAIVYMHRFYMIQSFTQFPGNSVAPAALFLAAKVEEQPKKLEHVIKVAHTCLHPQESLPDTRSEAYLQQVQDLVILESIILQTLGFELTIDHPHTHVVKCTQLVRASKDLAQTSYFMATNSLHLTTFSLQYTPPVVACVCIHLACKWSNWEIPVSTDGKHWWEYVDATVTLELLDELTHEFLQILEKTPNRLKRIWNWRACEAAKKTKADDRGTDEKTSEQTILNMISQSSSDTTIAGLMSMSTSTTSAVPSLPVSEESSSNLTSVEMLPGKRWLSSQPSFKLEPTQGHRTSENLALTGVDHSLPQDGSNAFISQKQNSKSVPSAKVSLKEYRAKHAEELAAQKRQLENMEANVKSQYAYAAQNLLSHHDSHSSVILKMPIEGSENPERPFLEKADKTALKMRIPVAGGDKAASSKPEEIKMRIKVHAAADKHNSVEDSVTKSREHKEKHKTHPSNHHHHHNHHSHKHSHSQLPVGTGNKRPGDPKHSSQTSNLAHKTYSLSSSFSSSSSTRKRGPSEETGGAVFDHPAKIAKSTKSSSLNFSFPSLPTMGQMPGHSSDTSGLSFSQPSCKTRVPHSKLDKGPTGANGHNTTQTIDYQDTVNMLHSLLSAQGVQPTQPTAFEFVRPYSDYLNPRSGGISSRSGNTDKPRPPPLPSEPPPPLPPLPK
Procedure: 1b. CDK9/CycT1 High ATP Kinase Assay
CDK9/CycT1-Inhibitory Activity of Compounds of the Present Invention at a High ATP Concentration after Preincubation of Enzyme and Test Compounds was Quantified Employing the CDK9/CycT1 TR-FRET Assay as Described in the Following Paragraphs.
Recombinant full-length His-tagged human CDK9 and CycT1, expressed in insect cells and purified by Ni-NTA affinity chromatography, were purchase from Invitrogen (Cat. No PV4131). As substrate for the kinase reaction biotinylated peptide biotin-Ttds-YISPLKSPYKISEG (C-terminus in amid form) was used which can be purchased e.g. form the company JERINI peptide technologies (Berlin, Germany). For the assay 50 nl of a 100 fold concentrated solution of the test compound in DMSO was pipetted into a black low volume 384 well microtiter plate (Greiner Bio-One, Frickenhausen, Germany), 2 μl of a solution of CDK9/CycT1 in aqueous assay buffer [50 mM Tris/HCl pH 8.0, 10 mM MgCl2, 1.0 mM dithiothreitol, 0.1 mM sodium ortho-vanadate, 0.01% (v/v) Nonidet-P40 (Sigma)] were added and the mixture was incubated for 15 min at 22° C. to allow pre-binding of the test compounds to the enzyme before the start of the kinase reaction. Then the kinase reaction was started by the addition of 3 μl of a solution of adenosine-tri-phosphate (ATP, 3.3 mM=>final conc. in the 5 μl assay volume is 2 mM) and substrate (1.67 μM=>final conc. in the 5 μl assay volume is 1 μM) in assay buffer and the resulting mixture was incubated for a reaction time of 25 min at 22° C. The concentration of CDK9/CycT1 was adjusted depending of the activity of the enzyme lot and was chosen appropriate to have the assay in the linear range, typical concentrations were in the range of 0.5 μg/mL. The reaction was stopped by the addition of 5 μl of a solution of TR-FRET detection reagents (0.2 μM streptavidine-XL665 [Cisbio Bioassays, Codolet, France] and 1 nM anti-RB(pSer807/pSer811)-antibody from BD Pharmingen [#558389] and 1.2 nM LANCE EU-W1024 labeled anti-mouse IgG antibody [Perkin-Elmer, product no. AD0077]) in an aqueous EDTA-solution (100 mM EDTA, 0.2% (w/v) bovine serum albumin in 100 mM HEPES/NaOH pH 7.0).
The resulting mixture was incubated 1 h at 22° C. to allow the formation of complex between the phosphorylated biotinylated peptide and the detection reagents. Subsequently the amount of phosphorylated substrate was evaluated by measurement of the resonance energy transfer from the Eu-chelate to the streptavidine-XL. Therefore, the fluorescence emissions at 620 nm and 665 nm after excitation at 350 nm was measured in a HTRF reader, e.g. a Rubystar (BMG Labtechnologies, Offenburg, Germany) or a Viewlux (Perkin-Elmer). The ratio of the emissions at 665 nm and at […] was taken as the measure for the amount of phosphorylated substrate. The data were normalised (enzyme reaction without inhibitor=0% inhibition, all other assay components but no enzyme=100% inhibition).

[2] = test system: HeLa-MaTu-ADR cells; test: Proliferation assay HeLa-MaTu-ADR (Method 3); type: cell-based, human; conditions: 4 days, crystal violet, read-out: Inhibition of HeLa-MaTu-ADR cell proliferation IC50
Procedure: (§1) Cultivated tumour cells (HeLa, human cervical tumour cells, ATCC CCL-2; NCI-H460, human non-small cell lung carcinoma cells, ATCC HTB-177; A2780, human ovarian carcinoma cells, ECACC #93112519; DU 145, hormone-independent human prostate carcinoma cells, ATCC HTB-81; HeLa-MaTu-ADR, multidrug-resistant human cervical carcinoma cells, EPO-GmbH Berlin; Caco-2, human colorectal carcinoma cells, ATCC HTB-37; B16F10, mouse melanoma cells, ATCC CRL-6475) were plated at a density of 5,000 cells/well (DU145, HeLa-MaTu-ADR), 3,000 cells/well (NCI-H460, HeLa), 2,500 cells/well (A2780), 1,500 cells/well (Caco-2), or 1,000 cells/well (B16F10) in a 96-well multititer plate in 200 μL of their respective growth medium supplemented 10% fetal calf serum. After 24 hours, the cells of one plate (zero-point plate) were stained with crystal violet (see below), while the medium of the other plates was replaced by fresh culture medium (200 μl), to which the test substances were added in various concentrations (0 μM, as well as in the range of 0.001-10 μM; the final concentration of the solvent dimethyl sulfoxide was 0.5%). The cells were incubated for 4 days in the presence of test substances. Cell proliferation was determined by staining the cells with crystal violet: the cells were fixed by adding 20 μl/measuring point of an 11% glutaric aldehyde solution for 15 minutes at room temperature. After three washing cycles of the fixed cells with water, the plates were dried at room temperature. The cells were stained by adding 100 μl/measuring point of a 0.1% crystal violet solution (pH 3.0). After three washing cycles of the stained cells with water, the plates were dried at room temperature. The dye was dissolved by adding 100 μl/measuring point of a 10% acetic acid solution. The extinction was determined by photometry at a wavelength of 595 nm. The change of cell number, in percent, was calculated by normalization of the measured values to the extinction values of the zero-point plate (=0%) and the extinction of the untreated (0 μm) cells (=100%). The IC50 values (inhibitory concentration at 50% of maximal effect) were determined by means of a 4 parameter fit.

[3] = test system: DU145 cells; test: Proliferation assay DU145 (Method 3); type: cell-based, human; conditions: DU145, 4 days, crystal violet, read-out: Inhibition of DU145 cell proliferation IC50
Procedure: as §1

[4] = test system: NCI-H460 cells; test: Proliferation assay NCI-H460 (Method 3); type: cell-based, human; conditions: NCI-H460, 4 days, crystal violet, read-out: Inhibition of NCI-H460 cell proliferation IC50
Procedure: as §1

[5] = test system: B16F10 cells; test: Proliferation assay B16F10 (Method 3); type: cell-based, mouse; conditions: 4 days, crystal violet, read-out: Inhibition of Bc6F10 cell proliferation IC50
Procedure: as §1

Row | IC50 [1] [nM] | Selectivity high ATP CDK9 over high ATP CDK2: IC50 (high ATP CDK2)/IC50 (high ATP CDK9) [1] | IC50 ([2]; Homo sapiens, 96 h) [nM] | IC50 ([3]; Homo sapiens, DU-145, 96 h) [nM] | IC50 ([4]; Homo sapiens, NCI-H460, 96 h) [nM] | IC50 ([5]; Mus musculus, B16-F10, 96 h) [nM] | IC50 [2] [nM] | IC50 [3] [nM] | IC50 [4] [nM] | IC50 [5] [nM] | SMILES
1 | 22 | 23 | 143 | 169 | 181 | 211 |  |  |  |  | CS(=N)(=O)Cc1cccc(Nc2ncc(F)c(-c3ccc(F)c4ccoc34)n2)c1 (racemic) [Example 4, (rac)-5-Fluoro-4-(4-fluoro-1-benzofuran-7-yl)-N-{3-[(S-methylsulfonimidoyl)-methyl]phenyl}-pyrimidin-2-amine]
2 | 1.9 | 343 | 60 | 51 | 104 | 64 |  |  |  |  | CS(=O)(Cc1cc(F)cc(Nc2ncc(F)c(-c3ccc(F)c4ccoc34)n2)c1)=NC#N (racemic) [Example 7, (rac)-[(3-Fluoro-5-{[5-fluoro-4-(4-fluoro-1-benzofuran-7-yl)pyrimidin-2-yl]amino}benzyl)(methyl)-oxido-λ^6-sulfanylidene]cyanamide]
3 | 3.4 | 656 |  |  |  |  | 42 | 34 | 106 | 52 | CS(=O)(Cc1cc(F)cc(Nc2ncc(F)c(-c3ccc(F)c4ccoc34)n2)c1)=NC#N (single isomer, unassigned) [Example 9, [(3-Fluoro-5-{[5-fluoro-4-(4-fluoro-1-benzofuran-7-yl)pyrimidin-2-yl]amino}benzyl)(methyl)-oxido-λ^6-sulfanylidene]cyanamide]
4 | 1 | 475 | 118 | 105 | 188 | 136 |  |  |  |  | CS(=O)(Cc1cccc(Nc2ncc(F)c(-c3ccc(F)c4ccoc34)n2)c1)=NC#N (single isomer, unassigned) [Example 3, [(3-{[5-Fluoro-4-(4-fluoro-1-benzofuran-7-yl)pyrimidin-2-yl]amino}benzyl)(methyl)oxido-λ^6-sulfanylidene]cyanamide]
5 | 0.99 | 1263 |  |  |  |  | 88 | 62 | 59 | 94 | CS(=N)(=O)Cc1cc(F)cc(Nc2ncc(F)c(-c3ccc(F)c4ccoc34)n2)c1 (single isomer, unassigned) [Example 12, 5-Fluoro-4-(4-fluoro-1-benzofuran-7-yl)-N-{3-fluoro-5-[(S-methylsulfonimidoyl)-methyl]-phenyl}-pyrimidin-2-amine]
6 | 1.1 | 321 |  |  |  |  | 87 | 54 | 117 | 75 | CS(=O)(Cc1cccc(Nc2ncc(F)c(-c3ccc(F)c4ccoc34)n2)c1)=NC#N (single isomer, unassigned) [Example 2, [(3-{[5-Fluoro-4-(4-fluoro-1-benzofuran-7-yl)pyrimidin-2-yl]amino}benzyl)(methyl)oxido-λ^6-sulfanylidene]cyanamide]
7 | 3.2 | 313 |  |  |  |  | 96 | 110 | 314 | 185 | CS(=N)(=O)Cc1cccc(Nc2ncc(F)c(-c3ccc(F)c4ccoc34)n2)c1 (single isomer, unassigned) [Example 6, 5-Fluoro-4-(4-fluoro-1-benzofuran-7-yl)-N-{3-[(S-methylsulfonimidoyl)-methyl]-phenyl}-pyrimidin-2-amine]
